The structures appear in SMILES notation.

This assay relates to prostaglandins E1, E2 F1α and F2α. Kind of assay: PG-inhibitory effect on the isolated gerbil colon. It counts as cell-based, Gerbils (Meriones unguiculatus). Conditions: gerbil colon. As to the method: The PG-inhibitory effect of esters of the present invention on the gerbil colon are determined using the general technique described by Eakins, Miller & Karim (J. Pharm. Exp. Ther. 176:441, 1971). Gerbils (Meriones unguiculatus) of own breed, both sexes, weighing 50-80 g are used. The animal is stunned, colon ascendens immediately removed, and a 2-3 cm piece mounted in a 6 ml bath containing a modified de Jalon solution at 28° C and continuously oxygenated. Contractions of the organ are registered either isotonically or isometrically. When testing the inhibitory effect of a compound this is added to the bath 2 min before the addition of prostaglandin. […] Several concentrations of each antagonist are used.
Turning to `CCN(CC)c1ccc(C=C(C(=O)c2ccc(OP(=O)([O-])Oc3ccc(C(=O)C(=Cc4ccc(N(CC)CC)cc4)c4ccc(C)cc4)c(OC)c3)cc2OC)c2ccc(C)cc2)cc1.[Na+]` [sodium bis(4-(3-(4-diethylaminophenyl)-2-(4-methylphenyl)acryloyl)-3-methoxyphenyl) phosphate], the “selective inhibitory effects compared with PPP” value (“selective inhibitory effects” for short) is “equal to or superior to that of PPP”.

On to `COc1cc(OP(=O)([O-])Oc2ccc(C(=O)CCc3ccc(N)cc3)c(OC)c2)ccc1C(=O)CCc1ccc(N)cc1.[Na+]` [sodium bis(4-(3-(4-aminophenyl)propionyl)-3-methoxyphenyl) phosphate], for which the “selective inhibitory effects” value is recorded as “equal to or superior to that of PPP”.

For the compound `Nc1cccc(C(=O)CCc2ccc(OP(=O)(O)Oc3ccc(CCC(=O)c4cccc(N)c4)cc3)cc2)c1` [sodium bis(4-(3-aminophenyl)-3-oxypropyl)phenyl) phosphate], the “selective inhibitory effects” value is “equal to or superior to that of PPP”.

Consider `COC(=O)Cc1ccc(C(=O)CCc2cccc(OP(=O)([O-])Oc3cccc(CCC(=O)c4ccc(CC(=O)OC)cc4)c3)c2)cc1.[Na+]` [sodium bis(3-(3-(4-methoxycarbonylmethylphenyl)-3-oxo-propyl)phenyl) phosphate], for which the “selective inhibitory effects” value is “equal to or superior to that of PPP”.

With `CCN(CC)c1ccc(CCC(=O)c2cc(C)c(OP(=O)([O-])Oc3c(C)cc(C(=O)CCc4ccc(N(CC)CC)cc4)cc3C)c(C)c2)cc1.[Na+]` [sodium bis(4-(3-(4-diethylaminophenyl)propionyl)-2,6-dimethylphenyl) phosphate], the “selective inhibitory effects” value is listed as “equal to or superior to that of PPP”.

Turning to `COc1ccc(CCC(=O)c2cccc(OP(=O)([O-])Oc3cccc(C(=O)CCc4ccc(OC)c(CN(C)C)c4)c3)c2)cc1CN(C)C.[Na+]` [sodium bis(3-(3-(3-dimethylaminomethyl-4-methoxyphenyl)propionyl)phenyl) phosphate], the “selective inhibitory effects” value is recorded as “equal to or superior to that of PPP”.

Regarding `Nc1ccccc1C(=O)CCc1cccc(OP(=O)([O-])Oc2cccc(CCC(=O)c3ccccc3N)c2)c1.[Na+]` [sodium bis(3-(3-(2-aminophenyl)-3-oxopropyl)phenyl) phosphate], the “selective inhibitory effects” value is on record as “equal to or superior to that of PPP”.

For `Nc1ccc(C(=O)CCc2ccc(OP(=O)(O)Oc3ccc(CCC(=O)c4ccc(N)cc4)cc3)cc2)cc1` [sodium bis(4-(3-(4-aminophenyl)-3-oxopropy)phenyl) phosphate], the “selective inhibitory effects” value is recorded as “equal to or superior to that of PPP”.

In the case of `CN(C)C(=O)Cc1ccc(C(=O)CCc2cccc(OP(=O)([O-])Oc3cccc(CCC(=O)c4ccc(CC(=O)N(C)C)cc4)c3)c2)cc1.[Na+]` [sodium bis(3-(3-(4-(N,N-dimethylcarbamoylmethyl)phenyl)-3-oxopropyl)phenyl)phosphate], the “selective inhibitory effects” value is given as “equal to or superior to that of PPP”.

For `CCN(CC)c1ccc(CCC(=O)c2cccc(OP(=O)([O-])Oc3cccc(C(=O)CCc4ccc(N(CC)CC)cc4)c3)c2)cc1.[Na+]` [sodium bis(3-(3-(4-diethylaminophenyl)propionyl)phenyl) phosphate], the “selective inhibitory effects” value is “equal to or superior to that of PPP”.

For the compound `Nc1ccccc1C(=O)CCc1ccc(OP(=O)([O-])Oc2ccc(CCC(=O)c3ccccc3N)cc2)cc1.[Na+]` [sodium bis(4-(3-(2-aminophenyl)-3-oxopropyl)phenyl) phosphate], the “selective inhibitory effects” value is recorded as “equal to or superior to that of PPP”.

These data come from patent publication US3991187A, “Medicinal compositions and methods of use involving phosphoric acid esters” (Aktiebolaget Leo, priority 1971, dated 1976).
